From PubChem BioAssay AID1918940 (Molecular Pharmacology Branch, DTP, NCI, 2023)

Test system: NCI-H211 complex spheroid viability
Assay: Anticancer human tumor NCI-H211 cell line growth inhibition [LSD1];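 further: luminescent viability read after seven days of drug exposure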;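 on viability, T/C: 100% = DMSO vehicle control viability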
Conditions: for IC50: curve of first compound; for viability, T/C: stronger effect = lower value
Procedure, shortened: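 Complex spheroids of tumor cells with HUVEC and human MSCs, exposed to iadademstat combined with other agents. Each agent tested in half-log steps from near clinical Cmax (else 10 microM top), DMSO ≤0.25%.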

[1] = second compound 0.1 µM, first compound 0.0316 µM
[2] = second compound 0.1 µM, first compound 0.1 µM
[3] = second compound 0.1 µM, first compound 0.316 µM
[4] = second compound 0.1 µM, first compound 1 µM
[5] = second compound 0.1 µM, first compound 3.16 µM
[6] = second compound 0.1 µM, first compound 10 µM
[7] = second compound 0.316 µM, first compound 0.0316 µM
[8] = second compound 0.316 µM, first compound 0.1 µM
[9] = second compound 0.316 µM, first compound 0.316 µM
[10] = second compound 0.316 µM, first compound 1 µM
[11] = second compound 0.316 µM, first compound 3.16 µM
[12] = second compound 0.316 µM, first compound 10 µM
[13] = second compound 1 µM, first compound 0.0316 µM
[14] = second compound 1 µM, first compound 0.1 µM
[15] = second compound 1 µM, first compound 0.316 µM
[16] = second compound 1 µM, first compound 1 µM
[17] = second compound 1 µM, first compound 3.16 µM
[18] = second compound 1 µM, first compound 10 µM
[19] = second compound 3.16 µM, first compound 0.0316 µM
[20] = second compound 3.16 µM, first compound 0.1 µM
[21] = second compound 3.16 µM, first compound 0.316 µM
[22] = second compound 3.16 µM, first compound 1 µM
[23] = second compound 3.16 µM, first compound 3.16 µM
[24] = second compound 3.16 µM, first compound 10 µM
[25] = second compound 10 µM, first compound 0.0316 µM
[26] = second compound 10 µM, first compound 0.1 µM
[27] = second compound 10 µM, first compound 0.316 µM
[28] = second compound 10 µM, first compound 1 µM
[29] = second compound 10 µM, first compound 3.16 µM
[30] = second compound 10 µM, first compound 10 µM
[31] = second compound 0.1 µM, first compound 0.00949 µM
[32] = second compound 0.1 µM, first compound 0.03 µM
[33] = second compound 0.1 µM, first compound 0.0949 µM
[34] = second compound 0.1 µM, first compound 0.3 µM
[35] = second compound 0.316 µM, first compound 0.00949 µM
[36] = second compound 0.316 µM, first compound 0.03 µM
[37] = second compound 0.316 µM, first compound 0.0949 µM
[38] = second compound 0.316 µM, first compound 0.3 µM
[39] = second compound 1 µM, first compound 0.00949 µM
[40] = second compound 1 µM, first compound 0.03 µM
[41] = second compound 1 µM, first compound 0.0949 µM
[42] = second compound 1 µM, first compound 0.3 µM
[43] = second compound 3.16 µM, first compound 0.00949 µM
[44] = second compound 3.16 µM, first compound 0.03 µM
[45] = second compound 3.16 µM, first compound 0.0949 µM
[46] = second compound 3.16 µM, first compound 0.3 µM
[47] = second compound 10 µM, first compound 0.00949 µM
[48] = second compound 10 µM, first compound 0.03 µM
[49] = second compound 10 µM, first compound 0.0949 µM
[50] = second compound 10 µM, first compound 0.3 µM

CC1(C)CCC(CN2CCN(c3ccc(C(=O)NS(=O)(=O)c4ccc(NCC5CCOCC5)c([N+](=O)[O-])c4)c(Oc4cnc5[nH]ccc5c4)c3)CC2)=C(c2ccc(Cl)cc2)C1 + NC1CC1c1ccc(-c2cccc(O)c2)cc1
IC50 (second compound 0.1 µM): < 31.6 nM
IC50 (second compound 0.316 µM): < 31.6 nM
IC50 (second compound 1 µM): < 31.6 nM
IC50 (second compound 3.16 µM): < 31.6 nM
IC50 (second compound 10 µM): < 31.6 nM
viability, T/C [1]: 43.8%
viability, T/C [2]: 38.7%
viability, T/C [3]: 35%
viability, T/C [4]: 53.4%
viability, T/C [5]: 100%
viability, T/C [6]: 52.7%
viability, T/C [7]: 36.8%
viability, T/C [8]: 37.9%
viability, T/C [9]: 37.2%
viability, T/C [10]: 53.2%
viability, T/C [11]: 100%
viability, T/C [12]: 65.1%
viability, T/C [13]: 27.5%
viability, T/C [14]: 47.8%
viability, T/C [15]: 26.1%
viability, T/C [16]: 44.5%
viability, T/C [17]: 90.8%
viability, T/C [18]: 55%
viability, T/C [19]: 32.1%
viability, T/C [20]: 28.1%
viability, T/C [21]: 29.8%
viability, T/C [22]: 30.8%
viability, T/C [23]: 58.9%
viability, T/C [24]: 46.2%
viability, T/C [25]: 32.7%
viability, T/C [26]: 26.2%
viability, T/C [27]: 21.2%
viability, T/C [28]: 28.2%
viability, T/C [29]: 30.5%
viability, T/C [30]: 21%

CC1COCCN1c1cc(C2(S(C)(=N)=O)CC2)nc(-c2ccnc3[nH]ccc23)n1 (stereo not given) + NC1CC1c1ccc(-c2cccc(O)c2)cc1
IC50 (second compound 0.1 µM): 258 nM
IC50 (second compound 0.316 µM): 264 nM
IC50 (second compound 1 µM): 381 nM
IC50 (second compound 3.16 µM): 317 nM
IC50 (second compound 10 µM): 115 nM
viability, T/C [1]: 89.3%
viability, T/C [2]: 68.7%
viability, T/C [3]: 48.5%
viability, T/C [4]: 19.1%
viability, T/C [5]: 4.67%
viability, T/C [6]: 2.73%
viability, T/C [7]: 85.4%
viability, T/C [8]: 72.9%
viability, T/C [9]: 46.9%
viability, T/C [10]: 13.5%
viability, T/C [11]: 5.02%
viability, T/C [12]: 2.53%
viability, T/C [13]: 74.2%
viability, T/C [14]: 64.3%
viability, T/C [15]: 57.5%
viability, T/C [16]: 15%
viability, T/C [17]: 5.48%
viability, T/C [18]: 3.11%
viability, T/C [19]: 69.6%
viability, T/C [20]: 73.2%
viability, T/C [21]: 48.8%
viability, T/C [22]: 16.3%
viability, T/C [23]: 5.24%
viability, T/C [24]: 3%
viability, T/C [25]: 65.7%
viability, T/C [26]: 51.6%
viability, T/C [27]: 33.1%
viability, T/C [28]: 14.5%
viability, T/C [29]: 5.1%
viability, T/C [30]: 3.28%

CCN(c1cc(-c2ccc(CN3CCOCC3)cc2)cc(C(=O)NCc2c(C)cc(C)[nH]c2=O)c1C)C1CCOCC1 + NC1CC1c1ccc(-c2cccc(O)c2)cc1
IC50 (second compound 0.1 µM): 205 nM
IC50 (second compound 0.316 µM): 69.4 nM
IC50 (second compound 1 µM): 114 nM
IC50 (second compound 3.16 µM): 127 nM
IC50 (second compound 10 µM): 139 nM
viability, T/C [31]: 74.4%
viability, T/C [32]: 62.2%
viability, T/C [33]: 61.3%
viability, T/C [34]: 43.7%
viability, T/C (second compound 0.1 µM, first compound 0.949 µM): 41%
viability, T/C (second compound 0.1 µM, first compound 3 µM): 40.9%
viability, T/C [35]: 84%
viability, T/C [36]: 67.3%
viability, T/C [37]: 42.7%
viability, T/C [38]: 48.8%
viability, T/C (second compound 0.316 µM, first compound 0.949 µM): 46.5%
viability, T/C (second compound 0.316 µM, first compound 3 µM): 36.3%
viability, T/C [39]: 83.4%
viability, T/C [40]: 48.5%
viability, T/C [41]: 65.8%
viability, T/C [42]: 38.1%
viability, T/C (second compound 1 µM, first compound 0.949 µM): 38.4%
viability, T/C (second compound 1 µM, first compound 3 µM): 30.3%
viability, T/C [43]: 79.3%
viability, T/C [44]: 58.7%
viability, T/C [45]: 50.5%
viability, T/C [46]: 46.3%
viability, T/C (second compound 3.16 µM, first compound 0.949 µM): 38.8%
viability, T/C (second compound 3.16 µM, first compound 3 µM): 27.4%
viability, T/C [47]: 70.3%
viability, T/C [48]: 58.6%
viability, T/C [49]: 46.6%
viability, T/C [50]: 51.7%
viability, T/C (second compound 10 µM, first compound 0.949 µM): 40.8%
viability, T/C (second compound 10 µM, first compound 3 µM): 32.1%

Cn1ncnc1C1c2n[nH]c(=O)c3cc(F)cc(c23)NC1c1ccc(F)cc1 (stereo not given) + NC1CC1c1ccc(-c2cccc(O)c2)cc1
IC50 (second compound 0.1 µM): 1.85 nM
IC50 (second compound 0.316 µM): 1.66 nM
IC50 (second compound 1 µM): 1.05 nM
IC50 (second compound 3.16 µM): 1.08 nM
IC50 (second compound 10 µM): 1.02 nM
viability, T/C (second compound 0.1 µM, first compound 0.000316 µM): 64.8%
viability, T/C (second compound 0.1 µM, first compound 0.001 µM): 65.8%
viability, T/C (second compound 0.1 µM, first compound 0.00316 µM): 36.7%
viability, T/C (second compound 0.1 µM, first compound 0.01 µM): 6.78%
viability, T/C [1]: 5.16%
viability, T/C [2]: 5.28%
viability, T/C (second compound 0.316 µM, first compound 0.000316 µM): 79.3%
viability, T/C (second compound 0.316 µM, first compound 0.001 µM): 66.8%
viability, T/C (second compound 0.316 µM, first compound 0.00316 µM): 28.5%
viability, T/C (second compound 0.316 µM, first compound 0.01 µM): 6.02%
viability, T/C [7]: 5.46%
viability, T/C [8]: 4.84%
viability, T/C (second compound 1 µM, first compound 0.000316 µM): 51.5%
viability, T/C (second compound 1 µM, first compound 0.001 µM): 51.6%
viability, T/C (second compound 1 µM, first compound 0.00316 µM): 23.6%
viability, T/C (second compound 1 µM, first compound 0.01 µM): 6.16%
viability, T/C [13]: 4.68%
viability, T/C [14]: 4.9%
viability, T/C (second compound 3.16 µM, first compound 0.000316 µM): 71.6%
viability, T/C (second compound 3.16 µM, first compound 0.001 µM): 50.8%
viability, T/C (second compound 3.16 µM, first compound 0.00316 µM): 26%
viability, T/C (second compound 3.16 µM, first compound 0.01 µM): 6.88%
viability, T/C [19]: 5.03%
viability, T/C [20]: 5.16%
viability, T/C (second compound 10 µM, first compound 0.000316 µM): 48.5%
viability, T/C (second compound 10 µM, first compound 0.001 µM): 52.2%
viability, T/C (second compound 10 µM, first compound 0.00316 µM): 19.9%
viability, T/C (second compound 10 µM, first compound 0.01 µM): 6.25%
viability, T/C [25]: 5.22%
viability, T/C [26]: 4.95%

Nc1ncn(C2CC(O)C(CO)S2)c(=O)n1 (stereo not given) + NC1CC1c1ccc(-c2cccc(O)c2)cc1
IC50 (second compound 0.1 µM): < 0.949 nM
IC50 (second compound 0.316 µM): < 0.949 nM
IC50 (second compound 1 µM): < 0.949 nM
IC50 (second compound 3.16 µM): < 0.949 nM
IC50 (second compound 10 µM): < 0.949 nM
viability, T/C (second compound 0.1 µM, first compound 0.000949 µM): 35.2%
viability, T/C (second compound 0.1 µM, first compound 0.003 µM): 20.8%
viability, T/C [31]: 9.36%
viability, T/C [32]: 4.53%
viability, T/C [33]: 4.25%
viability, T/C [34]: 5.78%
viability, T/C (second compound 0.316 µM, first compound 0.000949 µM): 35.8%
viability, T/C (second compound 0.316 µM, first compound 0.003 µM): 16.6%
viability, T/C [35]: 8.03%
viability, T/C [36]: 5.12%
viability, T/C [37]: 5.19%
viability, T/C [38]: 5.71%
viability, T/C (second compound 1 µM, first compound 0.000949 µM): 40.5%
viability, T/C (second compound 1 µM, first compound 0.003 µM): 17.2%
viability, T/C [39]: 8.75%
viability, T/C [40]: 4.16%
viability, T/C [41]: 4.46%
viability, T/C [42]: 6.59%
viability, T/C (second compound 3.16 µM, first compound 0.000949 µM): 31.3%
viability, T/C (second compound 3.16 µM, first compound 0.003 µM): 15.9%
viability, T/C [43]: 8.59%
viability, T/C [44]: 5.64%
viability, T/C [45]: 5.95%
viability, T/C [46]: 4.49%
viability, T/C (second compound 10 µM, first compound 0.000949 µM): 32.3%
viability, T/C (second compound 10 µM, first compound 0.003 µM): 16.6%
viability, T/C [47]: 8.49%
viability, T/C [48]: 6.66%
viability, T/C [49]: 5.5%
viability, T/C [50]: 6.65%
